Structures are written as SMILES. Activity calls are given as the source filed them. The rule behind the calls is not given here. A value given as a limit tells only on which side of the number the result lay.

Experimental findings from PubChem BioAssay AID624129 (Sanford-Burnham Center for Chemical Genomics, 2012) are described below.

This test addresses C-X-C chemokine receptor type 6 (Homo sapiens) (UniProt O00574). Nature of the test: CXCR6 receptor antagonists, dose response, cell-based, beta-arrestin, DiscoveRx, APJ panel, uHTS hits (AID 624129). The settings on record: CXCR6 beta-arrestin (DiscoveRx) antagonist cell assay; for outcome: CXCR6, dose range 1; for inhibition: CXCR6, run 2, dose range 1, at 79 µM (top of the series).

The mark [1] stands for this setting: CXCR6, dose range 1, mean IC50 across replicates.

Sequence of C-X-C chemokine receptor type 6 (Homo sapiens) (O00574 whole entry, looked up): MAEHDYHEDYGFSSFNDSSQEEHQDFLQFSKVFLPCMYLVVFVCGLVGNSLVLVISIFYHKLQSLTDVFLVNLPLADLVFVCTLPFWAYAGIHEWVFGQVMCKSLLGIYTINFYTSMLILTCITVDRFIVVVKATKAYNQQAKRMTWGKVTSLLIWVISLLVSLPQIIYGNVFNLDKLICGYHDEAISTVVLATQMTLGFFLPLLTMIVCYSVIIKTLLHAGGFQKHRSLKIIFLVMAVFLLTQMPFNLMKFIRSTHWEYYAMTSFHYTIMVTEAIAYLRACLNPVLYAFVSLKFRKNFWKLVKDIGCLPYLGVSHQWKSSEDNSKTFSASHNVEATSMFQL

Consider `Cc1cc2nc(N3C(=O)CNC3=S)sc2cc1C`, for which the result was inactive and the inhibition – broadly, the drop in the measured response relative to a control, in per cent – was determined as 89.4%. The IC50 (usually the concentration at which inhibition is half-maximal) under setting [1] was 11.6 µM. For the setting “CXCR6, run 1, dose range 2”, this molecule came in with a concentration for half-maximal inhibition (IC50) of 8.25 µM. The IC50 (CXCR6, run 2, dose range 2) was determined as 14.9 µM.
In the same order, the values of `CCOc1cc(/C=C2\N=C(SC)SC2=O)cc([N+](=O)[O-])c1OC(C)=O` are “inactive”, 98.2%, 28.3 µM, 27.7 µM and 28.8 µM.
In the same order, the values of `Cc1ccc(NC(=S)NNc2ncc(C(F)(F)F)cc2Cl)cc1` are “inactive”, 105%, 13.5 µM, 10.4 µM and 16.6 µM.
For `COc1ccc(NC(=S)NNc2ccc([N+](=O)[O-])cc2S(=O)(=O)Nc2ccc(C)cc2C)cc1` the same measures were “inactive”, 106%, 35.1 µM, greater than 79 µM and 35.1 µM.
Regarding `O=C(Nc1ccccc1)c1nnsc1S(=O)c1ccc(Cl)cc1` (stereo not given), the outcome was inactive and the inhibition came to 111%. For the same molecule, the IC50 under setting [1] came to 11.5 µM. Also, for the setting “CXCR6, run 1, dose range 2”, the half-inhibitory concentration (IC50) came to 11.9 µM. Further, the IC50 (CXCR6, run 2, dose range 2) worked out at 11.2 µM.
Turning to `Cc1[nH]n2c(=O)cc(-c3ccc([N+](=O)[O-])cc3)nc2c1-c1ccccc1`, the outcome was inactive and the inhibition worked out at 81.6%. Besides, the IC50 under setting [1] stood at 14.6 µM. Moreover, under “CXCR6, run 1, dose range 2”, the 50% inhibitory concentration (IC50) came to 13.9 µM. The same molecule yielded a 50% inhibitory concentration (IC50) (CXCR6, run 2, dose range 2) of 15.3 µM.
In the same order, the values of `O=C1C=CC(=O)N1c1ccc(N2CCCCC2)cc1` are “inactive”, 113%, 18.3 µM, 17.5 µM and 19.1 µM.
For `CCn1nccc1C(=O)Nc1nc2ccccc2n1CCN1CCCCC1` the same measures were “inactive”, 84.7%, 20.5 µM, 17.2 µM and 23.7 µM.
On to `FC(F)(F)c1cnc(NNC(=S)Nc2cccnc2)c(Cl)c1`, for which the outcome was inactive and the inhibition was determined as 107%. Also, under setting [1], the IC50 turned out to be 21.1 µM. Under “CXCR6, run 1, dose range 2”, the half-maximal inhibitory concentration (IC50) came out at 11.8 µM. The IC50 (CXCR6, run 2, dose range 2) came out at 30.4 µM.
On to `C=CCn1c(=O)c2c(nc3n2CC(C)CN3c2cccc(OC)c2)n(C)c1=O` (stereo not given), for which the outcome was inactive and the inhibition amounted to 66.1%. Besides, the IC50 under setting [1] stood at 19.5 µM. The same molecule returned an IC50 (CXCR6, run 1, dose range 2) of 18.3 µM. Where the note is “CXCR6, run 2, dose range 2”, this molecule returned an IC50 of 20.7 µM.
As for `CN(CC(=O)Nc1cc(S(=O)(=O)N2CCCC2)ccc1Cl)Cc1cccs1`, the outcome was inactive and the inhibition was determined as 78.8%. The molecule further had a 50% inhibitory concentration (IC50) under setting [1] of 11.5 µM. Besides, the IC50 (CXCR6, run 1, dose range 2) is 11.4 µM. This molecule also displayed an IC50 (CXCR6, run 2, dose range 2) of 11.6 µM.
As for `CCc1nc2c(OCCC3CCCCC3)cccn2c1N(C)C(=O)c1ccc(C)cc1`, the result was inactive and the inhibition is 111%. Moreover, under setting [1], the IC50 is 18.8 µM. This molecule also gave a half-inhibitory concentration (IC50) (CXCR6, run 1, dose range 2) of 17.9 µM. The IC50 (CXCR6, run 2, dose range 2) came out at 19.6 µM.
With `Cc1cccc(CS(=O)(=O)c2ncc(Cl)c(C(=O)NCc3ccc4c(c3)OCO4)n2)c1`, the outcome was inactive and the inhibition was found to be 109%. Further, the IC50 under setting [1] was found to be 16.9 µM. Under “CXCR6, run 1, dose range 2”, this molecule returned an IC50 of 15.7 µM. For the setting “CXCR6, run 2, dose range 2”, this molecule yielded an IC50 of 18 µM.
For `CCOC(=O)c1ccc(NC(=O)c2nc(S(=O)(=O)Cc3ccccc3)ncc2Cl)cc1` the same measures were “inactive”, 111%, 12.9 µM, 12.3 µM and 13.5 µM.
As to `O=C(NC(=S)Nc1ccccc1O)c1cccnc1`, the result was inactive and the inhibition is 58.4%. Moreover, the IC50 under setting [1] amounted to 30.3 µM. This molecule had an IC50 (CXCR6, run 1, dose range 2) of 30.3 µM. Where the note is “CXCR6, run 2, dose range 2”, this molecule displayed an IC50 greater than 79 µM.
For the molecule `COc1cc(/C=C/c2ccc3cccc(OC)c3n2)c(OC(C)=O)c([N+](=O)[O-])c1`, the result was inactive and the inhibition was 78.8%. The same molecule gave a 50% inhibitory concentration (IC50) under setting [1] of 28.4 µM. Moreover, for the setting “CXCR6, run 1, dose range 2”, the IC50 was determined as 35 µM. The IC50 (CXCR6, run 2, dose range 2) is 21.8 µM.
As to `Cc1ccc(CS(=O)(=O)c2ncc(Cl)c(C(=O)Nc3ccc(OC(F)F)cc3)n2)cc1`, the result was inactive and the inhibition was found to be 105%. For the same molecule, the IC50 under setting [1] came to 12.6 µM. The half-inhibitory concentration (IC50) (CXCR6, run 1, dose range 2) amounted to 12.6 µM. Further, the IC50 (CXCR6, run 2, dose range 2) is greater than 79 µM.
Turning to `Cc1cc(O)c(-c2cc(O)c(C)cc2O)cc1O`, the result was inactive and the inhibition came to 114%. For the same molecule, the IC50 under setting [1] turned out to be 14 µM. For the same molecule, the half-maximal inhibitory concentration (IC50) (CXCR6, run 1, dose range 2) was determined as 13.6 µM. Besides, the IC50 (CXCR6, run 2, dose range 2) amounted to 14.4 µM.
